Like-named read-outs stand apart in the source and are kept apart here.
Assays:
[1] = Reverse-phase thin-layer chromatographic lipophilicity (RF, RM0); type: physicochemical; conditions: for RM0: intercept of RM = RM0 + bC; for b: slope of RM = RM0 + bC
Outline: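 Reverse-phase TLC using mobile phases of methanol, acetone or dioxane with water and hydrochloric acid. Methanol varied in 10% steps; development distance 4.5 cm, ambient temperature (22±2 °C). RF measured and RM0 derived from retention.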

purified human BChE = target: T1, purified human BChE (Homo sapiens, UniProt P06276); test: biochemical; type: biochemical
T1 construct: possibly also a gift of Dr Florian Nachon (the sentence is ambiguous)
Outline: (§1)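 Modified Ellman assay with acetylthiocholine and DTNB in 0.1 M sodium phosphate pH 7.4 (enzymes diluted with 0.1% BSA), ≤0.2% DMSO, 25 °C. At least three inhibitor concentrations per substrate level; Ki,app from Hunter–Downs equation, Ki from y-intercept and inhibition type from Ki,app vs [S].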

recombinant human AChE = target: T2, recombinant human AChE (Homo sapiens, UniProt P22303); test: biochemical; type: biochemical
T2 construct: gift of Dr Florian Nachon (Armed Forces Biomedical Research Institute, Brétigny-sur-Orge, France)
Outline: as §1

[2] = Ferric reducing antioxidant power (FRAP) assay; conditions: mean ± standard error of three experiments;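 also: expressed as µM Fe2+ equivalents from an FeSO4·7H2O standard curve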
Outline: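 Compounds at 10 and 100 µM were mixed with FRAP reagent (300 mM acetate buffer pH 3.6, TPTZ in HCl, FeCl3, 10:1:1) and incubated 60 min at 37 °C. Fe^2+-TPTZ formation read at 593 nm against a blank. Values derived from an Fe2SO4·7H2O standard curve, three independent experiments.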

[3] = standard compounds of the interpolation method; cited from earlier work
[4] = Acetone/Water/Hydrochloric acid (conc.)
[5] = Dioxane/Water/Hydrochloric acid (conc.)
[6] = Methanol/Water/Hydrochloric acid (conc.)

T2 sequence (P22303 32-614): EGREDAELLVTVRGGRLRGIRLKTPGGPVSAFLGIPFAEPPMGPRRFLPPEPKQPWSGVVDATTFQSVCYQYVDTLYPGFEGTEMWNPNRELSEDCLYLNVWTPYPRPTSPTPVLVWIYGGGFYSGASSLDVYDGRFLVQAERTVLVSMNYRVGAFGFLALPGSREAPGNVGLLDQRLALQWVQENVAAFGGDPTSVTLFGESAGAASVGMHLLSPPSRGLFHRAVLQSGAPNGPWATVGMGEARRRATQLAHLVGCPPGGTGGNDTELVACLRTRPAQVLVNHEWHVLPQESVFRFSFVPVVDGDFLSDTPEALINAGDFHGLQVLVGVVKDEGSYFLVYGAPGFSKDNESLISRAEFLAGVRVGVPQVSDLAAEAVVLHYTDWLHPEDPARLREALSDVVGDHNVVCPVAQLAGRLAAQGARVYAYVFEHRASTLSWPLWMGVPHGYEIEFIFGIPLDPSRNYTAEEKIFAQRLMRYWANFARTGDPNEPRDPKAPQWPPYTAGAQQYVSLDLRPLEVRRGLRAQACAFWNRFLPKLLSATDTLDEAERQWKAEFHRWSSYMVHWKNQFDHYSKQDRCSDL
T1 sequence (P06276 29-602): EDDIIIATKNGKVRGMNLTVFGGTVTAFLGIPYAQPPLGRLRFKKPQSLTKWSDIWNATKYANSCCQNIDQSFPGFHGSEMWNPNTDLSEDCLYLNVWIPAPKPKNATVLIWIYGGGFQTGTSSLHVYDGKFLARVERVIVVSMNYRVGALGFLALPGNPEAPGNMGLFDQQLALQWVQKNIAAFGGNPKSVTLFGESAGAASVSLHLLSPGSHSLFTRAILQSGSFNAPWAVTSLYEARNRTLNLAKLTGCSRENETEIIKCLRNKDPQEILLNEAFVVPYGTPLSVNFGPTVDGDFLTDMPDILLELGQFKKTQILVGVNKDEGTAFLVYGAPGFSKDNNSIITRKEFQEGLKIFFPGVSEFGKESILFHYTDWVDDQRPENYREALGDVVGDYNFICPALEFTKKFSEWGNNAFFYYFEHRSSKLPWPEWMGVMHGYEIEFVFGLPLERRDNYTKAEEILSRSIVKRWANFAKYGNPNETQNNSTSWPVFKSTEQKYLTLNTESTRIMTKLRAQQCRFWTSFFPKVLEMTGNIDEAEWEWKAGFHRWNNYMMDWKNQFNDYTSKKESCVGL

Clc1ccc2c(NCCCN3CCN(CCCNCCC45CC6CC(CC(C6)C4)C5)CC3)ccnc2c1 [Compound 23]
RM0 [1, 4]: 1.784 | b [1, 4]: 2.934 | RM0 [1, 5]: 0.7935 | b [1, 5]: 1.661 | RM0 [1, 6]: 2.211 | b [1, 6]: 2.892 | RF, Methanol/Water/Hydrochloric acid (conc.), mobile phase I ([1]; RP-18 silica, I = 90%MeOH/5%H2O/5%HCl): 0.64 | RF, Dioxane/Water/Hydrochloric acid (conc.), mobile phase II ([1]; RP-18 silica, II = 80%Dioxane/15%H2O/5%HCl): 0.73 | RF, Methanol/Water/Hydrochloric acid (conc.), mobile phase II ([1]; RP-18 silica, II = 85%MeOH/10%H2O/5%HCl): 0.66 | RF, Acetone/Water/Hydrochloric acid (conc.), mobile phase III ([1]; RP-18 silica, III = 70%AC/25%H2O/5%HCl): 0.62 | RF, Dioxane/Water/Hydrochloric acid (conc.), mobile phase III ([1]; RP-18 silica, III = 70%Dioxane/25%H2O/5%HCl): 0.71 | RF, Methanol/Water/Hydrochloric acid (conc.), mobile phase III ([1]; RP-18 silica, III = 80%MeOH/15%H2O/5%HCl): 0.54 | RF, Dioxane/Water/Hydrochloric acid (conc.), mobile phase IV ([1]; RP-18 silica, IV = 60%Dioxane/35%H2O/5%HCl): 0.71 | RF, Acetone/Water/Hydrochloric acid (conc.), mobile phase IV ([1]; RP-18 silica, IV = 65%AC/30%H2O/5%HCl): 0.58 | RF, Methanol/Water/Hydrochloric acid (conc.), mobile phase IV ([1]; RP-18 silica, IV = 75%MeOH/20%H2O/5%HCl): 0.53 | RF, Acetone/Water/Hydrochloric acid (conc.), mobile phase IX ([1]; RP-18 silica, IX = 40%AC/55%H2O/5%HCl): 0.15 | RF, Methanol/Water/Hydrochloric acid (conc.), mobile phase IX ([1]; RP-18 silica, IX = 50%MeOH/45%H2O/5%HCl): 0.12 | RF, Dioxane/Water/Hydrochloric acid (conc.), mobile phase V ([1]; RP-18 silica, V = 50%Dioxane/45%H2O/5%HCl): 0.51 | RF, Acetone/Water/Hydrochloric acid (conc.), mobile phase V ([1]; RP-18 silica, V = 60%AC/35%H2O/5%HCl): 0.48 | RF, Methanol/Water/Hydrochloric acid (conc.), mobile phase V ([1]; RP-18 silica, V = 70%MeOH/25%H2O/5%HCl): 0.44 | RF, Dioxane/Water/Hydrochloric acid (conc.), mobile phase VI ([1]; RP-18 silica, VI = 40%Dioxane/55%H2O/5%HCl): 0.38 | RF, Acetone/Water/Hydrochloric acid (conc.), mobile phase VI ([1]; RP-18 silica, VI = 55%AC/40%H2O/5%HCl): 0.42 | RF, Methanol/Water/Hydrochloric acid (conc.), mobile phase VI ([1]; RP-18 silica, VI = 65%MeOH/30%H2O/5%HCl): 0.37 | RF, Acetone/Water/Hydrochloric acid (conc.), mobile phase VII ([1]; RP-18 silica, VII = 50%AC/45%H2O/5%HCl): 0.35 | RF, Methanol/Water/Hydrochloric acid (conc.), mobile phase VII ([1]; RP-18 silica, VII = 60%MeOH/35%H2O/5%HCl): 0.25 | RF, Acetone/Water/Hydrochloric acid (conc.), mobile phase VIII ([1]; RP-18 silica, VIII = 45%AC/50%H2O/5%HCl): 0.31 | RF, Methanol/Water/Hydrochloric acid (conc.), mobile phase VIII ([1]; RP-18 silica, VIII = 55%MeOH/40%H2O/5%HCl): 0.18 | Ki (purified human BChE; logarithm of Ki in µM, BChE, dependent variable of the QSAR model, read-out: Y Measured 2 log(ki)Bche, log (Ki/µM BChE) (converted)): 1.8 µM | Ki (purified human BChE; ± standard error, 25 °C, ATCh substrate, read-out: Ki BChE): 1.8 ± 0.2 µM | IS (recombinant human AChE; IS = Ki(BChE)/Ki(AChE), IS > 1 selective to AChE): 4.1 | Ki (recombinant human AChE; log (Ki/µM AChE), read-out: Y Measured 1 log(ki)Ache (converted)): 0.44 µM | Ki (recombinant human AChE; ± standard error, 25 °C, ATCh substrate, read-out: Ki AChE): 0.44 ± 0.09 µM | FRAP ([2]; 10 µM compound): 1.4 ± 0.1 µM | FRAP ([2]; 100 µM compound): 20 ± 5 µM

c1ccc2cc3ccccc3cc2c1 [antracen]
logP [3]: 4.45

c1ccc2c(c1)ccc1ccccc12 [fenantren]
logP [3]: 4.46

c1ccc2c(c1)Cc1ccccc1-2 [fluoren]
logP [3]: 4.18

O=C1CN=C(c2ccccc2Cl)c2cc([N+](=O)[O-])ccc2N1 [klonazepam]
logP [3]: 2.41 | pKa1 [3]: 10.5 | pKa2 [3]: 1.5

— paper PMC9229919, “4-Aminoquinoline-Based Adamantanes as Potential Anticholinesterase Agents in Symptomatic Treatment of Alzheimer’s Disease” (Pharmaceutics, 2022)
